Three compounds from article PMC6770320 (Cancers, 2019) can be followed below.

Assay [1] has as its target T1, multidrug resistance protein 2 (MRP2) (Homo sapiens, UniProt Q92887).
T1 construct: gene ABCC2; membrane vesicles from Sf9 cells overexpressing human MRP2
As to the kind of experiment: vanadate-sensitive ATPase stimulation in Sf9/MRP2 membrane vesicles, with control vesicles. Format: biochemical. The text has this:
vanadate-sensitive ATPase stimulation in Sf9/MRP2 membrane vesicles, with control vesicles on multidrug resistance protein 2 (MRP2) | oxaliplatin stimulated the vanadate-sensitive MRP2 ATPase activities in a concentration-dependent manner

Assay [2] concerns the target T1, multidrug resistance protein 2 (MRP2). As to the kind of experiment: inhibition of oxaliplatin-stimulated ([…]) vanadate-sensitive ATPase in membrane vesicles; […] reduction at […], no apparent effect at […]. In kind it is cell-based.
Assay [3] has the same target. As to the kind of experiment: inhibition of oxaliplatin-stimulated ([…]) vanadate-sensitive ATPase in membrane vesicles; […] reduction at […]. Format: cell-based.

T1 sequence (Q92887 whole entry): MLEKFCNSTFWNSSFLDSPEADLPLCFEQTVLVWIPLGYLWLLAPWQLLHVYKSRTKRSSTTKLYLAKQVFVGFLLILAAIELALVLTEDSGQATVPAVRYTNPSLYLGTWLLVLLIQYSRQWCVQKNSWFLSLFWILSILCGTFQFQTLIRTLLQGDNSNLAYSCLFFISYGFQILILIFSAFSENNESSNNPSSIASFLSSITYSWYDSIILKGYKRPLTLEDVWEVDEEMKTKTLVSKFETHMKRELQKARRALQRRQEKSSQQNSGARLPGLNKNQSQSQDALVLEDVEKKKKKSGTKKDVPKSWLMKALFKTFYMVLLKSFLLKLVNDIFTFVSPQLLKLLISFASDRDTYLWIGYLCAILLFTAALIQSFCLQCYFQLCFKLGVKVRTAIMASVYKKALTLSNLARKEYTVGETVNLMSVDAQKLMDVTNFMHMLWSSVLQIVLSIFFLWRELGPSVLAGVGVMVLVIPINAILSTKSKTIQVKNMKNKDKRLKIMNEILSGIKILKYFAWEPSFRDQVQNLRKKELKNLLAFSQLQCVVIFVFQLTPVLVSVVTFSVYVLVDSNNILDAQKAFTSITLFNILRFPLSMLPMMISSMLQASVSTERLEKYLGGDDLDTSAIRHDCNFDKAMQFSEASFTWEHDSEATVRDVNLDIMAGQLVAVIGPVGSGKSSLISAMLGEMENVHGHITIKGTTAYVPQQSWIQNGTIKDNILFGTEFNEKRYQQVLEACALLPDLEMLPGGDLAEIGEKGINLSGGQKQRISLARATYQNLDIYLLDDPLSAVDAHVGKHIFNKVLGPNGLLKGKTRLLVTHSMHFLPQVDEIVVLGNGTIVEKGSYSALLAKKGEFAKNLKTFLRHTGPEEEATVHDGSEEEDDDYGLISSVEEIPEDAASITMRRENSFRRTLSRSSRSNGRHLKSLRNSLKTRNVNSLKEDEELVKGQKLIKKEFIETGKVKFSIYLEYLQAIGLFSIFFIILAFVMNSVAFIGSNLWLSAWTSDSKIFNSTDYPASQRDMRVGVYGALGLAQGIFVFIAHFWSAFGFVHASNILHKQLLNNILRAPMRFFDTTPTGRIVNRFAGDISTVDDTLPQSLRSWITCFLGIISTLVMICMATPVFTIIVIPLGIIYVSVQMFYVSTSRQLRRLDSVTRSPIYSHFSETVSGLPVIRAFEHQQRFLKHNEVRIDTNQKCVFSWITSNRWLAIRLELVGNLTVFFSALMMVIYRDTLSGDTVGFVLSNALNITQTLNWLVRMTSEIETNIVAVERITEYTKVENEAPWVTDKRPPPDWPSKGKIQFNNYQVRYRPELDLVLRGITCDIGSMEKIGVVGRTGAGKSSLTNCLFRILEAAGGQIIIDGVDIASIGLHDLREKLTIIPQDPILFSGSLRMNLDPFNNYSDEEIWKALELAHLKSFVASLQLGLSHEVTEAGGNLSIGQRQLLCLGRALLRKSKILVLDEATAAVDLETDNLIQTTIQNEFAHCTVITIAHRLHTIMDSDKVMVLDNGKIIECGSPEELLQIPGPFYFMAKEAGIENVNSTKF

`O=C1[O][Pt]2([NH][C@@H]3CCCC[C@H]3[NH]2)[O]C1=O` [oxaliplatin] came in with an EC50 in assay [1] of 8.3 ± 0.7 µM.
Take `O=c1c(O)c(-c2cc(O)c(O)c(O)c2)oc2cc(O)cc(O)c12` [myricetin]: the inhibition at 60 µM in assay [2] amounted to 40%.
On to `CCc1oc2ccccc2c1C(=O)c1cc(Br)c(O)c(Br)c1` [benzbromarone], for which the inhibition at 100 µM in assay [3] is 90%.
